Read-outs that look alike come from different tables or passages of the source.
Columns and labels:
Human α4β2 nAChR = molecular target: T1, Human α4β2 nAChR (Homo sapiens, UniProt P17787+P43681); assay: Radioligand binding ([3H]nicotine) at α4β2 nAChR, membranes from SH-EP1/human α4β2 clonal cells
T1 construct: expressed in transfected cells; host or cells: SH-EP1 clonal cells expressing human α4β2
Protocol: Preparation of Membranes from SH-EP1/Human α4β2 Clonal Cells:
Cell pellets from 40 150 mm culture dishes were pooled, and homogenized by Polytron (Kinematica GmbH, Switzerland) in 20 milliliters of ice-cold preparative buffer. The homogenate was centrifuged at 48,000 g for 20 minutes at 4° C. The resulting pellet was re-suspended in 20 mL of ice-cold preparative buffer and stored at −20° C.
On the day of the assay, the frozen membranes were thawed and spun at 48,000×g for 20 min. The supernatant was decanted and discarded. The pellet was resuspended in Dulbecco's phosphate buffered saline (PBS, Life Technologies) pH 7.4 and homogenized with the Polytron for 6 seconds. Protein concentrations were determined using a Pierce BCA Protein Assay Kit, with bovine serum albumin as the standard (Pierce Chemical Company, Rockford, Ill.).
Incubation was terminated by rapid filtration on a multi-manifold tissue harvester (Brandel, Gaithersburg, Md.) using GF/B filters presoaked in 0.33% polyethyleneimine (w/v) to reduce non-specific binding. Tissue was rinsed 3 times in PBS, pH 7.4. Scintillation fluid was added to filters containing the washed tissue and allowed to equilibrate. Filters were then counted to determine radioactivity bound to the membranes by liquid scintillation counting (2200CA Tri-Carb LSC, Packard Instruments, 50% efficiency or Wallac Trilux 1450 MicroBeta, 40% efficiency, Perkin Elmer).
Data were expressed as disintegrations per minute (DPMs). Within each assay, each point had 2-3 replicates.

Human α7 nAChR = Human α7 nAChR (UniProt P36544); assay: Radioligand binding ([3H]MLA) at α7 nAChR
[1] = competition with 5 nM [3H]MLA; Ki by Cheng-Prusoff; read-out: Human α7 Ki
[2] = read-out: Human α7 Ki; competition with 5 nM [3H]MLA; Ki by Cheng-Prusoff

T1 sequence (P43681 29-627 limits assumed): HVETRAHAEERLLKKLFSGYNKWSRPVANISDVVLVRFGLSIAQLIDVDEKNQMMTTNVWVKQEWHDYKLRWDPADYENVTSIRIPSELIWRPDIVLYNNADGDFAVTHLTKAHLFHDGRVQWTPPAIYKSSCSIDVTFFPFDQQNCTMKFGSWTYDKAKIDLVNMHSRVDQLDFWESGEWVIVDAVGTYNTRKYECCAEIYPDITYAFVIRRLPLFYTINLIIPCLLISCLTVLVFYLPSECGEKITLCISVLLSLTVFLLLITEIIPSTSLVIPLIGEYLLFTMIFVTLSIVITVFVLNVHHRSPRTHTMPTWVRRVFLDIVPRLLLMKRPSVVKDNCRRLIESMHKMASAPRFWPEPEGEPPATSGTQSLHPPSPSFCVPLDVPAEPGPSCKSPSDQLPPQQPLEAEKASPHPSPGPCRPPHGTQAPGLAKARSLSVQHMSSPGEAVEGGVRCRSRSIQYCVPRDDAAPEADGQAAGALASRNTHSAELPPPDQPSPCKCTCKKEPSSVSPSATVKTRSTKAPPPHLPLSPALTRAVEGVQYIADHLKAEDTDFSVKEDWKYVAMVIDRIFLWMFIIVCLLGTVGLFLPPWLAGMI
T1 sequence (P17787 26-502): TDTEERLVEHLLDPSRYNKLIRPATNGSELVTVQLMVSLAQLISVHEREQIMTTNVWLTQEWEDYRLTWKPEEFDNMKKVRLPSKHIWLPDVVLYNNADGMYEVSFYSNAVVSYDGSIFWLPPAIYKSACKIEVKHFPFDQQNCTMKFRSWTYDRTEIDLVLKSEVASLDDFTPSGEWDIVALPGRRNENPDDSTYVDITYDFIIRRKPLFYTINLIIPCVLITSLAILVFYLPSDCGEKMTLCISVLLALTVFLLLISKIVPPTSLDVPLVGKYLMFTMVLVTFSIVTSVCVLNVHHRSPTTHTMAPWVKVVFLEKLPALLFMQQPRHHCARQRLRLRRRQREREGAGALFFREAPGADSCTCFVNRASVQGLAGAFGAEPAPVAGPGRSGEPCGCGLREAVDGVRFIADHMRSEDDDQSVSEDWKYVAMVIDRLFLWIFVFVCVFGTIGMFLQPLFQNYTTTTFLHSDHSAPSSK

SMILES | Ki (Human α4β2 nAChR) | Ki (Human α7 nAChR; [1]) | Ki (Human α4β2 nAChR; read-out: Human α4β2 Ki) | Ki (Human α7 nAChR; [2])
c1cncc(N2CC3CC(C2)CN(C2CN4CCC2CC4)C3)c1 (centres unmarked) | 42 nM | 510 nM |  | 
c1cncc(N2CC3CC(C2)CN(C2CCCNC2)C3)c1 (centres unmarked) |  |  | 0.79 nM | 62 nM
c1cncc(N2CC3CC(C2)CN(C2CCNCC2)C3)c1 | 14 nM | 790 nM |  | 
c1cncc(N2CC3CC(C2)CN(C2CCNC2)C3)c1 (centres unmarked) |  |  | 0.16 nM | 24 nM
c1cncc(N2CC3CC(C2)CN(C2CCCNCC2)C3)c1 (centres unmarked) |  |  | 0.45 nM | 20 nM
c1cncc(N2CC3CC(C2)CN(C2CNC2)C3)c1 | 5.8 nM | 550 nM |  | 
CN1CCC(N2CC3CC(CN(c4cccnc4)C3)C2)C1 (centres unmarked) | 11 nM | 790 nM |  | 

Reference: patent US20150031675A1, “DIAZABICYCLO[3.3.1]NONANES, METHODS OF SYNTHESIS, AND USES THEREOF” (Targacept, Inc., priority 2012, published 2015)
